Experimental data published in US9241488B2, “Azole derivative, method for producing azole derivative, and intermediate compound” (KUREHA CORPORATION, priority 2011, dated 2016).

Tests used:
[1] = tested on: wheat leaf blight-causing microorganisms; experiment: Anti-bacterial effect on wheat leaf blight-causing microorganisms (PDA plate, mycelial growth inhibition); format: cell-based, Septoria tritici; conditions: 336 h; 1.25 mg/L in PDA plate medium, 25° C., 14 days; read-out: Growth inhibition grade
[2] = tested on: wheat-brown-rust-causing microorganisms; experiment: Controlling effect on wheat brown rust (spray, pot test); format: in vivo, Puccinia recondita; conditions: 1 mg/L sprayed at 1,000 L/ha, wheat NORIN No. 61, 9 to 14 days after inoculation
Outline: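 Two-leaf wheat (NORIN No. 61) sprayed with formulation at 1 mg/L, 1,000 L/ha, then spray-inoculated with rust spores and held 48 hours at 25° C, high humidity, then greenhouse.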

wheat [3] = experiment: Harmful effect of necrosis to wheat caused by seed treatment (pot test); format: in vivo; conditions: 2 mg compound per 1 g wheat seeds, 31 days after seeding, smaller index = smaller harmful effect
Method: Thirty one days after the seeding, a degree of necrosis (necrosis area ratio) in wheat was evaluated. By using criteria shown in Table 7, necrosis indexes were calculated on the basis of the necrosis area ratio.

[4] = tested on: Rice bacterial seeding blight (Rhizopus oryzae); experiment: Anti-bacterial effect on various microorganisms (plate medium), R.o; format: cell-based; conditions: Rhizopus arrhizus, read-out: Growth inhibition grade R.o
[5] = tested on: wheat brown rust-causing microorganisms; experiment: Controlling effect on wheat brown rust caused by seed treatment (pot test); format: in vivo, Puccinia recondita; conditions: 2 mg compound per 1 g wheat seeds, inoculated 21 days after seeding, evaluated 14 days after inoculation
Method: An efficacy against wheat brown rust was evaluated by performing a pot test. […] The pots were kept in a greenhouse with supplying water underneath. Twenty one days after the seeding, wheat brown rust-causing microorganisms was inoculated, and the pots were stored in a humidity chamber for 2 days. The pots were kept again in a greenhouse with supplying water underneath. Fourteen days after the inoculation, a lesion degree was evaluated, and a protective value was calculated. The protective value was calculated with use of the following formula, and was defined as a wheat brown rust protective value. Protective value=(1−lesion degree in treated plot/lesion degree in untreated plot)×100(%)

wheat [6] = experiment: Growth inhibition test for wheat caused by seed treatment (pot test); conditions: 2 mg compound per 1 g wheat seeds, 36 days after seeding, larger index = smaller damage
Method: Harmful effect (growth inhibition) to wheat was evaluated by performing a pot test. Compounds (2 mg) of the present invention and a comparative compound (2 mg) were weighed, and those compounds were each dissolved in DMSO (18 μl). Chemical thus prepared were applied to wheat seeds (1 g) in a vial, and eight wheat seeds were seeded in a pot of 80 cm^2. The seeds were cultivated in a greenhouse with supplying water underneath. 36 days after the seeding, damage (growth inhibition) was evaluated.
The damage (growth inhibition) index was calculated on the basis of the following table. As the growth inhibition index becomes larger, the damage of growth inhibition caused by the treatment of the chemicals becomes smaller.

[7] = tested on: Wheat pink snow mold (Microdochium nivale); experiment: Anti-bacterial effect on various microorganisms (plate medium), M.n; format: cell-based; conditions: Microdochium nivale, read-out: Growth inhibition grade M.n
[8] = tested on: Barley stripe (Pyrenophora graminea); experiment: Anti-bacterial effect of V′ compounds on various microorganisms (plate medium), P.g; format: cell-based; conditions: 5 mg/L
[9] = tested on: Snow mold of winter wheat (Microdochium nivale); experiment: Anti-bacterial effect of V′ compounds on various microorganisms (plate medium), M.n; format: cell-based; conditions: 5 mg/L
[10] = tested on: Swollen rice seedling (Rhizopus oryzae); experiment: Anti-bacterial effect of V′ compounds on various microorganisms (plate medium), R.o; format: cell-based; conditions: 5 mg/L
[11] = tested on: Barley leaf blotch (Rhynchosporium secalis); experiment: Anti-bacterial effect of V′ compounds on various microorganisms (plate medium), R. sec; format: cell-based; conditions: 5 mg/L
[12] = tested on: Wheat Septoria nodorum blotch microorganism (Phaeosphaeria nodorum); experiment: Anti-bacterial effect of V′ compounds on various microorganisms (plate medium), P.n; format: cell-based; conditions: 5 mg/L
[13] = tested on: Rice blast (Pyricularia oryzae); format: cell-based; conditions: 5 mg/L
G.g = experiment: Anti-bacterial effect of V′ compounds on various microorganisms (plate medium), G.g; format: cell-based; conditions: 5 mg/L
[14] = tested on: Wheat leaf blight (Septoria tritici); experiment: Anti-bacterial effect of V′ compounds on various microorganisms (plate medium), S.t; format: cell-based; conditions: 5 mg/L

Row | Structure (SMILES) | inhibition at 1.25 µg/mL [1] | Protective value [2] | necrosis index (wheat [3]) | inhibition at 1.25 µg/mL ([4]; 1.25 mg/L) | inhibition at 5 µg/mL ([4]; 5 mg/L) | wheat brown rust protective value [5] | damage (growth inhibition) index (wheat [6]) | inhibition at 1.25 µg/mL ([7]; 1.25 mg/L) | inhibition at 5 µg/mL ([7]; 5 mg/L) | Anti-bacterial effect index against various microorganisms P.g [8] | Anti-bacterial effect index against various microorganisms M.n [9] | Anti-bacterial effect index against various microorganisms R.o [10] | Anti-bacterial effect index against various microorganisms R. sec [11] | Anti-bacterial effect index against various microorganisms P.n [12] | Anti-bacterial effect index against various microorganisms P.o [13] | Anti-bacterial effect index against various microorganisms G.g (G.g) | Anti-bacterial effect index against various microorganisms S.t [14]
1 | CC1(C)CC[C@H](Cc2ccc(Cl)cc2)[C@@]1(O)Cn1cncn1 (racemic) [Compound (1), reference compound] | 60 to 80% | 3 (41 to 60) | 1 (1% or more but less than 5%) | 60 to 80% | > 80% | 95% | 2 (Less than 60% but 40% or more) | 20 to 40% | > 80% | – | – | – | – | – | – | – | –
2 | OC1(Cn2cncn2)C(Cc2ccc(Cl)cc2)CCC12COCOC2 (centres unmarked) [Compound V′-d, 2-(4-chlorobenzyl)-1-(1H-1,2,4-triazole-1-ylmethyl)-7,9-dioxaspiro[4,5]decane-1-ol] | – | 4 (61 to 80) | – | – | – | 100% | – | – | – | 5 (% Mycerial growth inhibition of 80% or higher) | 3 (% Mycerial growth inhibition of less than 60 to 40% or higher) | 5 (% Mycerial growth inhibition of 80% or higher) | 5 (% Mycerial growth inhibition of 80% or higher) | 5 (% Mycerial growth inhibition of 80% or higher) | 5 (% Mycerial growth inhibition of 80% or higher) | 5 (% Mycerial growth inhibition of 80% or higher) | 4 (% Mycerial growth inhibition of less than 80 to 60% or higher)
3 | CC1OCC2(CCC(Cc3ccc(Cl)cc3)C2(O)Cn2cncn2)CO1 (centres unmarked) [Compound V′-e, 2-(4-chlorobenzyl)-8-methyl-1-(1H-1,2,4-triazole-1-ylmethyl)-7,9-dioxaspiro[4,5]decane-1-ol] | > 80% | – | – | – | – | 100% | – | – | – | 5 (% Mycerial growth inhibition of 80% or higher) | 5 (% Mycerial growth inhibition of 80% or higher) | 5 (% Mycerial growth inhibition of 80% or higher) | 5 (% Mycerial growth inhibition of 80% or higher) | 5 (% Mycerial growth inhibition of 80% or higher) | 5 (% Mycerial growth inhibition of 80% or higher) | 5 (% Mycerial growth inhibition of 80% or higher) | 5 (% Mycerial growth inhibition of 80% or higher)
